In paper PMC11971462, “Generation and validation of a novel multitarget small molecule in glioblastoma” (Cell Death & Disease, 2025):

Tested on: GNS166 cells
Test: Label-free proteomics differential expression
Assay type: cell-based, human
Procedure: Proteomic studies were performed by the Proteomics Facility of the CIC bioGUNE by label-free relative quantification on nLC MS/MS. […] In both approaches, the top 20 enriched terms were plotted and the pathways were clustered using divisive hierarchical clustering based on pairwise Jaccard distances.

## C#CCN(Cc1cc2cc(OCCCN3CCCCC3)ccc2n1S(=O)(=O)c1ccccc1)C(=O)CCCCCCC(=O)NO [DDI]
Protein P60059
  LogFC SC61G_HUMAN: -0.7245
Protein P61619
  Direction S61A1_HUMAN: Down
  LogFC S61A1_HUMAN: -0.5192
Protein P61916 GN=NPC2
  LogFC NPC2_HUMAN: 2.258
Protein P62081
  Direction RS7_HUMAN: Down
  LogFC RS7_HUMAN: -0.4241
Protein P62191
  Direction PRS4_HUMAN: Down
  LogFC PRS4_HUMAN: -0.4147
Protein P62241 GN=RPS8
  LogFC RS8_HUMAN: -0.4178
Protein P62760 GN=VSNL1
  LogFC VISL1_HUMAN: 1.015
Protein P62841 GN=RPS15
  LogFC RS15_HUMAN: -0.6326
Protein P63096 GN=GNAI1
  LogFC GNAI1_HUMAN: 2.584
Protein P63167
  Direction DYL1_HUMAN: Down
  LogFC DYL1_HUMAN: -0.5083
Protein P67809 GN=YBX1
  LogFC YBOX1_HUMAN: -0.6246
Protein P68104
  Direction EF1A1_HUMAN: Down
  LogFC EF1A1_HUMAN: -0.2726
Protein P68431
  Direction H31_HUMAN: Down
  LogFC H31_HUMAN: -4.298
Protein P78344
  Direction IF4G2_HUMAN: Down
  LogFC IF4G2_HUMAN: -0.799
Protein P78347
  Direction GTF2I_HUMAN: Down
  LogFC GTF2I_HUMAN: -2.48
Protein P78504 GN=JAG1
  LogFC JAG1_HUMAN: 1.553
Protein P80404 GN=ABAT
  LogFC GABT_HUMAN: 1.722
Protein P82970 GN=HMGN5
  LogFC HMGN5_HUMAN: 1.669
Protein Q0ZGT2 GN=NEXN
  LogFC NEXN_HUMAN: 1.075
Protein Q2NKX8
  Direction ERC6L_HUMAN: Down
  LogFC ERC6L_HUMAN: -1.52
Protein Q2NL82
  Direction TSR1_HUMAN: Down
  LogFC TSR1_HUMAN: -0.7691
Protein Q2TAL8
  Direction QRIC1_HUMAN: Down
  LogFC QRIC1_HUMAN: -0.7876
Protein Q3YEC7
  Direction RABL6_HUMAN: Down
  LogFC RABL6_HUMAN: -0.9067
Protein Q4VC31 GN=CCDC58
  LogFC CCD58_HUMAN: 2.085
Protein Q5BJD5 GN=TMEM41B
  LogFC TM41B_HUMAN: 1.572
Protein Q5EB52
  Direction MEST_HUMAN: Down
  LogFC MEST_HUMAN: -1.179
Protein Q5J8M3 GN=EMC4
  LogFC EMC4_HUMAN: 0.9113
Protein Q5JVS0 GN=HABP4
  LogFC HABP4_HUMAN: 1.16
Protein Q5K4L6
  Direction S27A3_HUMAN: Down
  LogFC S27A3_HUMAN: -1.576
Protein Q5T440
  Direction CAF17_HUMAN: Down
  LogFC CAF17_HUMAN: -1.623
Protein Q5TBA9 GN=FRY
  LogFC FRY_HUMAN: 0.4095
Protein Q5VV42
  Direction CDKAL_HUMAN: Down
  LogFC CDKAL_HUMAN: -0.9728
Protein Q5VWZ2 GN=LYPLAL1
  LogFC LYPL1_HUMAN: 2.901
Protein Q5VYK3
  Direction ECM29_HUMAN: Down
  LogFC ECM29_HUMAN: -1.336
Protein Q6IN85
  Direction P4R3A_HUMAN: Down
  LogFC P4R3A_HUMAN: -0.9894
Protein Q6NW34
  Direction NEPRO_HUMAN: Down
  LogFC NEPRO_HUMAN: -2.0501
Protein Q6NZI2
  Direction CAVN1_HUMAN: Down
  LogFC CAVN1_HUMAN: -0.9705
Protein Q6P2Q9
  Direction PRP8_HUMAN: Down
  LogFC PRP8_HUMAN: -0.5767
Protein Q6P996 GN=PDXDC1
  LogFC PDXD1_HUMAN: -1.201
Protein Q6PJG2 GN=MIDEAS
  LogFC MDEAS_HUMAN: -1.368
Protein Q6PL24 GN=TMED8
  LogFC TMED8_HUMAN: 1.071
Protein Q6SJ93 GN=FAM111B
  LogFC F111B_HUMAN: 1.175
Protein Q6VMQ6
  Direction MCAF1_HUMAN: Down
  LogFC MCAF1_HUMAN: -0.5577
Protein Q6XZF7
  Direction DNMBP_HUMAN: Down
  LogFC DNMBP_HUMAN: -1.235
Protein Q6YN16 GN=HSDL2
  LogFC HSDL2_HUMAN: 0.7277
Protein Q6ZNB6
  Direction NFXL1_HUMAN: Down
  LogFC NFXL1_HUMAN: -0.9938
Protein Q6ZRP7
  Direction QSOX2_HUMAN: Down
  LogFC QSOX2_HUMAN: -1.536
Protein Q6ZRS2 GN=SRCAP
  LogFC SRCAP_HUMAN: -1.996
Protein Q6ZUT6
  Direction CCD9B_HUMAN: Down
  LogFC CCD9B_HUMAN: -1.697
Protein Q7KZF4 GN=SND1
  LogFC SND1_HUMAN: 0.6224
Protein Q7L0J3 GN=SV2A
  LogFC SV2A_HUMAN: 0.9586
Protein Q7L576
  Direction CYFP1_HUMAN: Down
  LogFC CYFP1_HUMAN: -0.7029
Protein Q7Z3K3
  Direction POGZ_HUMAN: Down
  LogFC POGZ_HUMAN: -1.413
Protein Q7Z3U7 GN=MON2
  LogFC MON2_HUMAN: -0.4314
Protein Q7Z4S6
  Direction KI21A_HUMAN: Down
  LogFC KI21A_HUMAN: -1.343
Protein Q08AD1
  Direction CAMP2_HUMAN: Down
  LogFC CAMP2_HUMAN: -0.4479
Protein Q8IUE6 GN=H2AC21
  LogFC H2A2B_HUMAN: -0.9956
Protein Q8IUF8 GN=RIOX2
  LogFC RIOX2_HUMAN: -1.969
Protein Q8IUR7 GN=ARMC8
  LogFC ARMC8_HUMAN: -2.228
Protein Q8IW35
  Direction CEP97_HUMAN: Down
  LogFC CEP97_HUMAN: -0.4382
Protein Q8IWT6 GN=LRRC8A
  LogFC LRC8A_HUMAN: -0.7869
Protein Q8IX12
  Direction CCAR1_HUMAN: Down
  LogFC CCAR1_HUMAN: -0.6634
Protein Q8IY67
  Direction RAVR1_HUMAN: Down
  LogFC RAVR1_HUMAN: -2.239
Protein Q8IYB5 GN=SMAP1
  LogFC SMAP1_HUMAN: -0.6906
Protein Q8IYM9
  Direction TRI22_HUMAN: Down
  LogFC TRI22_HUMAN: -2.3161
Protein Q8N1G4 GN=LRRC47
  LogFC LRC47_HUMAN: -0.5175
Protein Q8N2W9 GN=PIAS4
  LogFC PIAS4_HUMAN: 0.8535
Protein Q8N3C0
  Direction ASCC3_HUMAN: Down
  LogFC ASCC3_HUMAN: -0.4031
Protein Q8N3F8
  Direction MILK1_HUMAN: Down
  LogFC MILK1_HUMAN: -1.876
Protein Q8N5I4 GN=DHRSX
  LogFC DHRSX_HUMAN: -1.799
Protein Q8N6H7 GN=ARFGAP2
  LogFC ARFG2_HUMAN: -2.652
Protein Q8N6M3 GN=FITM2
  LogFC FITM2_HUMAN: 1.422
Protein Q8N201
  Direction INT1_HUMAN: Down
  LogFC INT1_HUMAN: -1.252
Protein Q8N684
  Direction CPSF7_HUMAN: Down
  LogFC CPSF7_HUMAN: -0.7682
Protein Q8N884
  Direction CGAS_HUMAN: Down
  LogFC CGAS_HUMAN: -1.895
Protein Q8NAV1 GN=PRPF38A
  LogFC PR38A_HUMAN: 1.096
